Calls of active or inactive are those of the source.
Experiments:
[1] = target: Intestinal-type alkaline phosphatase (Mus musculus, UniProt P24822); test: PubChem AID 488785; type: functional
[2] = target: T1, Long-chain-fatty-acid--AMP ligase FadD28 (Mycobacterium tuberculosis, UniProt P9WQ59); test: Fluorescence polarization aasay to screen for inhibitors that compete for the binding of FadD28 to a bisubstrate Measured in Biochemical System Using Plate Reader - 2147-01_Inhibitor_Dose_CherryPick_Activity.; type: functional, Mycobacterium tuberculosis H37Rv
T1 sequence (P9WQ59 whole entry): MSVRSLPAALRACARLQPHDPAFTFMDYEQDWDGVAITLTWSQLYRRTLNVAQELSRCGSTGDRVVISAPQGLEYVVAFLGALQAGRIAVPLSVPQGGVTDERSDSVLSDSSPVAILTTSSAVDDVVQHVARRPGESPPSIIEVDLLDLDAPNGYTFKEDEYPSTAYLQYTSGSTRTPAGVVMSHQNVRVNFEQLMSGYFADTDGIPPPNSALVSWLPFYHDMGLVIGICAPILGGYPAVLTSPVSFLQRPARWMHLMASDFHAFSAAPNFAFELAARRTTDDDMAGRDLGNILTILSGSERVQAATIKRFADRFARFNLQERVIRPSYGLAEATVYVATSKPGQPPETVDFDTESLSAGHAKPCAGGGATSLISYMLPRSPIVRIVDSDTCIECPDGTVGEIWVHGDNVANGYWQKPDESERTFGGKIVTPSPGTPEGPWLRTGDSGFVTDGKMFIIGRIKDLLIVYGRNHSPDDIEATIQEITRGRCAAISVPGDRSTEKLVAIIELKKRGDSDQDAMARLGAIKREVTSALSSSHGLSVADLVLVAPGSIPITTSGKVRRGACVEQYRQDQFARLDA

[3] = target: Intestinal-type alkaline phosphatase (Homo sapiens, UniProt P09923); test: inhibition of human intestinal alkaline phosphatase – biochemical, dose response (AID 488876); type: functional
Chain of Intestinal-type alkaline phosphatase (Homo sapiens, UniProt P09923) (P09923 whole entry): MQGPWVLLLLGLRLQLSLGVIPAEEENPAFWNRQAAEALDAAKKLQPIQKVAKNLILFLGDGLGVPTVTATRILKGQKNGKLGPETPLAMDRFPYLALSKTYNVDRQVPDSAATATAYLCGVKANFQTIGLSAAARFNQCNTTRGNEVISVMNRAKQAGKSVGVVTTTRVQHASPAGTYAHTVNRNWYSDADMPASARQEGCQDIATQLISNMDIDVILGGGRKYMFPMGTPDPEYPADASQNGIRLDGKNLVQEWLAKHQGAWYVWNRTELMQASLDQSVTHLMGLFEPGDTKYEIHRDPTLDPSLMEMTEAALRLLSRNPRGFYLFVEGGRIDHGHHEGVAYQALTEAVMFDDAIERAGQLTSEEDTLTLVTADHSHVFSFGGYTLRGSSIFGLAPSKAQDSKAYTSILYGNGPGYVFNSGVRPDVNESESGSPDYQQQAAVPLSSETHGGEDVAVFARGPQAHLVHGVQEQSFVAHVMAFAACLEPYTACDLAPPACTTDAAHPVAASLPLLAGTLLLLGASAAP

[4] = target: T2, Alkaline phosphatase, tissue-nonspecific isozyme (Homo sapiens, UniProt P05186); test: TNAP enzyme inhibition by screening hits, dose response, selectivity assay for mouse IAP inhibitor project, biochemical, human TNAP, uHTS hits (AID 488906); type: functional
T2 sequence (P05186 whole entry): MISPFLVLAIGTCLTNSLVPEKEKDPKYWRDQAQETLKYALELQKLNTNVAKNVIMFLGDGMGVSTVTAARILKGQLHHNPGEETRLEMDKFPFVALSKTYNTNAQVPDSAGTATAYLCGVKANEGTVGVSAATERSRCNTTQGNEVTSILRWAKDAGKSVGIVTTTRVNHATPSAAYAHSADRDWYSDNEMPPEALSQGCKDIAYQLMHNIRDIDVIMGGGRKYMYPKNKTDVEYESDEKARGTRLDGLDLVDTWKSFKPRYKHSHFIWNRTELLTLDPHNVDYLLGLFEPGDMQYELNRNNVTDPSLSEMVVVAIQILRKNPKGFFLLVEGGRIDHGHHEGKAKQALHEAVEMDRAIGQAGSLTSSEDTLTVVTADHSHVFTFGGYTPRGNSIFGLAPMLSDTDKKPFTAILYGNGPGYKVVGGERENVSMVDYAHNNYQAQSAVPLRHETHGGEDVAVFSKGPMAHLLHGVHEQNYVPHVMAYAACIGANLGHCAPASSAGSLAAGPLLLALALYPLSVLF

Beta-galactosidase = Beta-galactosidase (Escherichia coli, UniProt Q8VNN2); test: PubChem AID 485352; type: functional
Chain of Beta-galactosidase (Q8VNN2 whole entry): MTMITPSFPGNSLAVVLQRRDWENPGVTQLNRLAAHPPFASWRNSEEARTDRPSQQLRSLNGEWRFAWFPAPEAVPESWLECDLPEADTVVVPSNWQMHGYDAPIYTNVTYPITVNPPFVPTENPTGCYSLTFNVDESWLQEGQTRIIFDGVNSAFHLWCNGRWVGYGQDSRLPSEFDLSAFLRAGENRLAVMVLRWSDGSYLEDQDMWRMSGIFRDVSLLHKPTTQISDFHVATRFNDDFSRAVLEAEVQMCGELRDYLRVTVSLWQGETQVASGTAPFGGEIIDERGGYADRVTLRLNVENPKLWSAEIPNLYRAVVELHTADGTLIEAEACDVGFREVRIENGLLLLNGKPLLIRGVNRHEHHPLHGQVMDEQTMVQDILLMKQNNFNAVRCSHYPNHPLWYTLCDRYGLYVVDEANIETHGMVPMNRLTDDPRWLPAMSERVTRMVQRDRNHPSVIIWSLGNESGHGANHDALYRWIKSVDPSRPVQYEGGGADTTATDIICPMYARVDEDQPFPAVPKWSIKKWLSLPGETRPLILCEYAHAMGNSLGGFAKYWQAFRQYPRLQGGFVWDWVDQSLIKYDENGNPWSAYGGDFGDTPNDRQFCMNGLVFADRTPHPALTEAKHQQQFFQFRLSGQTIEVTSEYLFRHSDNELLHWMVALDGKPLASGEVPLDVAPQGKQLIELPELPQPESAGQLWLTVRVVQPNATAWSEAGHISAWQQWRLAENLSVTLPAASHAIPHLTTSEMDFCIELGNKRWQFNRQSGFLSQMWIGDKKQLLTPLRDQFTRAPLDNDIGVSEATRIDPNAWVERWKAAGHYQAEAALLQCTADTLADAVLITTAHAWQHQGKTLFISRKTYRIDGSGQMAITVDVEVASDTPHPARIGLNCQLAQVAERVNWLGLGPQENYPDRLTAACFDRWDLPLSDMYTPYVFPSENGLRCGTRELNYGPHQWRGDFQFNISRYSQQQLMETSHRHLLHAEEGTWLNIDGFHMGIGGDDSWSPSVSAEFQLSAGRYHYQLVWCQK

[5] = target: T3, Type-1 angiotensin II receptor (Homo sapiens, UniProt P30556); test: AT1 receptor antagonists, dose response, selectivity assay for APJ receptor antagonist project, cell-based, uHTS hits (AID 463214); type: functional;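 note: antagonist potency against angiotensin II stimulated AT1 response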
T3 sequence (P30556 whole entry): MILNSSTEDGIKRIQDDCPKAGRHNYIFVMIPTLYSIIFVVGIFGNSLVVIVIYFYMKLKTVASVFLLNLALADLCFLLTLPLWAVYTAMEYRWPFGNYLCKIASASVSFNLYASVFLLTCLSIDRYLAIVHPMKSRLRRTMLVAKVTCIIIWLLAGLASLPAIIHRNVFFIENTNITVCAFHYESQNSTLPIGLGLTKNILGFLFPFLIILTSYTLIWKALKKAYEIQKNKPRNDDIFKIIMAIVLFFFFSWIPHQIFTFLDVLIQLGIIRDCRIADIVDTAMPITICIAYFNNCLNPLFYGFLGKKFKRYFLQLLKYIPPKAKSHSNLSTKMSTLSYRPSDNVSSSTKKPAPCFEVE

[6] = target: Heat shock protein HSP 90-alpha (Homo sapiens, UniProt P07900); type: functional, organism-based
[7] = target: T4, Small ubiquitin-related modifier 1 (Homo sapiens, UniProt P63165); test: inhibitors of SUMO1 peptide binding, dose response, biochemical, fluorescence polarization, uHTS hits (AID 624382); type: functional; conditions: read-out: IC50_Mean
T4 sequence (P63165 whole entry): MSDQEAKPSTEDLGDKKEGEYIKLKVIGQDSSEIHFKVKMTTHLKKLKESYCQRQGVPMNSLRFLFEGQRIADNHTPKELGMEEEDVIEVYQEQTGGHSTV

[8] = target: T4, Small ubiquitin-related modifier 1; test: inhibitors of SUMO1 partner interactions, dose response, biochemical, FRET (AID 624383); type: functional; conditions: read-out: IC50_Mean
[9] = target: T5, Apoptotic protease-activating factor 1 (Homo sapiens, UniProt O14727); test: activation of Apaf-1 mediated apoptosis – fluorescent, uHTS hits, dose response (AID 588554); type: functional
T5 sequence (O14727 whole entry): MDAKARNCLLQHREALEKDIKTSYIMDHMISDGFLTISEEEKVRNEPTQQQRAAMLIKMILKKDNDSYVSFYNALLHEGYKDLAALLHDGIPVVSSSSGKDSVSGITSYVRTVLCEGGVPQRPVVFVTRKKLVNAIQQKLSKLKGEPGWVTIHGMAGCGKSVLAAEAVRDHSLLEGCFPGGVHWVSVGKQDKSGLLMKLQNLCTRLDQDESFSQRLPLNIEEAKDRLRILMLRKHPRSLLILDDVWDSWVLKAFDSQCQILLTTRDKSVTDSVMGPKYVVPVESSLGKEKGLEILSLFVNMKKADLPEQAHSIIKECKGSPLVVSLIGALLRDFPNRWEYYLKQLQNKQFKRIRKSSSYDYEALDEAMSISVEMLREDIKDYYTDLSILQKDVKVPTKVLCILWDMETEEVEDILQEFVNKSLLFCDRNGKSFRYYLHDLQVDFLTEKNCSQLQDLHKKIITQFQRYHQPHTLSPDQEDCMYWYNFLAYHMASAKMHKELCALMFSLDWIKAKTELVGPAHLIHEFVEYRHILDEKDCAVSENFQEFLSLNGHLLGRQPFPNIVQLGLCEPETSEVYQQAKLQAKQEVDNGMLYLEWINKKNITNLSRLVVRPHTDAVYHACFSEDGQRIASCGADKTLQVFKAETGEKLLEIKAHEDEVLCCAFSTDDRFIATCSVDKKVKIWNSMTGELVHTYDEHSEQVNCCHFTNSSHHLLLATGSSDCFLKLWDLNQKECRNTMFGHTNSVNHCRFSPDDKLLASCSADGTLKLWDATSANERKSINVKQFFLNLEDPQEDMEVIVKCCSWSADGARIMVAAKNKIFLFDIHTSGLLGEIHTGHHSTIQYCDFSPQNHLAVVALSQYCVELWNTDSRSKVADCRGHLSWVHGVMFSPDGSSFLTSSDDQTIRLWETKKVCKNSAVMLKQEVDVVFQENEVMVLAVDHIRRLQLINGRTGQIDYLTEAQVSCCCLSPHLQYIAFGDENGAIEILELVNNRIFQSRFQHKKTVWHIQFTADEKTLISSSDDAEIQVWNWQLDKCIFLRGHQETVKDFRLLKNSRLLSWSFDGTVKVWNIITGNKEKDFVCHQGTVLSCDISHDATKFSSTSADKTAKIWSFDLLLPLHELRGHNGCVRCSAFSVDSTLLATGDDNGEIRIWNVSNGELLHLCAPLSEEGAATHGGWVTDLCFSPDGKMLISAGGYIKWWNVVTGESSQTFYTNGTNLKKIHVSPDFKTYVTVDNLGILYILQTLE

[10] = target: DNA dC->dU-editing enzyme APOBEC-3A (Homo sapiens, UniProt P31941); test: APOBEC3A DNA deaminase inhibitors, dose response, biochemical (AID 504722); type: functional
Chain of DNA dC->dU-editing enzyme APOBEC-3A (P31941 whole entry): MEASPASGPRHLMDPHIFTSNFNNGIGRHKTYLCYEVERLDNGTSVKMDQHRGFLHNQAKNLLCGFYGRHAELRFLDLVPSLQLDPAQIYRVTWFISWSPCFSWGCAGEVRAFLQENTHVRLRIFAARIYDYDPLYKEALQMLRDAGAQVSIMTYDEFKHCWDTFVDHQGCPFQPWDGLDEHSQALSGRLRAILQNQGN

[11] = target: DNA dC->dU-editing enzyme APOBEC-3G (Homo sapiens, UniProt Q9HC16); test: Dose Response confirmation of small molecule APOBEC3G DNA Deaminase Inhibitors via a fluorescence-based single-stranded DNA deaminase assay. [Related pubchem assays (depositor defined):AID493012, AID493028]; type: functional
Chain of DNA dC->dU-editing enzyme APOBEC-3G (Q9HC16 whole entry, the tested form may be a part): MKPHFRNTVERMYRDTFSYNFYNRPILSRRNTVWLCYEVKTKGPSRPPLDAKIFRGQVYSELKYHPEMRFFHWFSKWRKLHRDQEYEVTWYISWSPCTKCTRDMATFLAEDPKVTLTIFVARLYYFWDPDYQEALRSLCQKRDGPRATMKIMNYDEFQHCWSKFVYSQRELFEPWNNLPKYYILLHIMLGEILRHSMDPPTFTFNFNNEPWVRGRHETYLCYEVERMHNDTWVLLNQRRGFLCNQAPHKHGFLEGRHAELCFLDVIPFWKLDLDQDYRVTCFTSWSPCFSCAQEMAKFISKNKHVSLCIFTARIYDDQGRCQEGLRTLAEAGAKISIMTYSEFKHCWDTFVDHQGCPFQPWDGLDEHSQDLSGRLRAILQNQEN

[12] = target: T6, Carboxy-terminal domain RNA polymerase II polypeptide A small phosphatase 1 (Homo sapiens, UniProt Q9GZU7); test: inhibitors of CTDSP1, concentration-response testing, biochemical assay, absorbance-based, actives from ultra-high-throughput screening (AID 540297); type: functional
T6 sequence (Q9GZU7 whole entry): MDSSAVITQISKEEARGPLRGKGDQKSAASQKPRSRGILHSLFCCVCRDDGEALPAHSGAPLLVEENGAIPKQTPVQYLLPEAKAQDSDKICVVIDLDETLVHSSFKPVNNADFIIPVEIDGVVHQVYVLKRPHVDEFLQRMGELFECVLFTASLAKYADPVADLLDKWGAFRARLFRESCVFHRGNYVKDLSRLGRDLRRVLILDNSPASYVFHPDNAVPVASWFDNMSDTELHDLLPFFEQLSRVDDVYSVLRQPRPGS

Chain of Intestinal-type alkaline phosphatase (Mus musculus, UniProt P24822) (P24822 whole entry): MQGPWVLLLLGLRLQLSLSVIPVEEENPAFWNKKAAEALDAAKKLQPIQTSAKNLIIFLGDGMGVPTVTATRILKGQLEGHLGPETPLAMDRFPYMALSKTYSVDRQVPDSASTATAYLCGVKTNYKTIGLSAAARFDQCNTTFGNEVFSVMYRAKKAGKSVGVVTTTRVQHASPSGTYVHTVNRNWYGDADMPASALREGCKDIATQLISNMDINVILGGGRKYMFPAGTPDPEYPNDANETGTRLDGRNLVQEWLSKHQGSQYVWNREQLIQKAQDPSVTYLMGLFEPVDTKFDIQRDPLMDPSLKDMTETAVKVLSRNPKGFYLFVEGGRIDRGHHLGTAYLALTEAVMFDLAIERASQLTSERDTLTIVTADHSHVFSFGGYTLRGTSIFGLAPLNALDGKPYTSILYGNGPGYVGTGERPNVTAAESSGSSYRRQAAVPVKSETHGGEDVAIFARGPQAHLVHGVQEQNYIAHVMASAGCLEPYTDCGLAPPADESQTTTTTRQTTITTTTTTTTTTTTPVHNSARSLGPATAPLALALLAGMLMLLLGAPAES

| SMILES | IC50 [1] | AC50 [2] | IC50 [3] | IC50 [4] | EC50 (Beta-galactosidase) | IC50 [5] | AC50 [6] | IC50 [7] | IC50 [8] | EC50 [9] | IC50 [10] | IC50 [11] | IC50 [12] |
| --- | --- | --- | --- | --- | --- | --- | --- | --- | --- | --- | --- | --- | --- |
| O=C(NN1C(=O)/C(=C/c2ccc(O)cc2)SC1=S)c1ccccc1O | 4.68 µM (active) | 61.9 µM (active) | > 100 µM (inactive) | > 100 µM (inactive) | – | – | – | – | – | – | – | – | – |
| COc1cc(/C=C/[N+](=O)[O-])ccc1OC(=O)c1cc2ccccc2oc1=O | 13 µM (active) | – | > 100 µM (inactive) | > 100 µM (inactive) | > 40 µM (inactive) | 10.4 µM (active) | 1.01 µM (active) | – | – | – | – | – | – |
| C=C(C)C(=O)Nc1cccc(C2=NOC3(C2)C[C@@H](C(N)=O)N(C(=O)c2cc([N+](=O)[O-])cc([N+](=O)[O-])c2C)C3)c1 (stereo partly specified) | – | – | – | – | – | – | – | > 66.6 µM (inactive) | 8.54 µM (active) | 10.8 µM (active) | > 100 µM (inactive) | 14 µM (active) | 4.59 µM (active) |
